According to patent publication US20140120166A1, “COMPOSITION OF ENTACOPONE” (INNOPHARMAX, INC., priority 2011, published 2014):

Assay: Dissolution test (FDA dissolution method for entacapone, USP paddle apparatus, HPLC analysis)
Type: physicochemical
Details: USP standard paddle stirring apparatus, 50 rpm, 900 mL pH 5.5 phosphate buffer solution, 120 minutes
Method: The dissolution test was conducted according to the drug dissolution method for entacapone obtained by searching the Dissolution Methods Database provided on the FDA website (http://www.accessdata.fda.gov/scripts/cder/dissolution/dsp_Search Results_Dissolutions.cfm). The dissolution test was carried out using a USP standard paddle stirring apparatus with a rotation speed of 50 rpm. The solvent used was 900 mL pH 5.5 phosphate buffer solution and the period of test was 120 minutes.

CCN(CC)C(=O)/C(C#N)=C/c1cc(O)c(O)c([N+](=O)[O-])c1 [entacapone, (E)-2-cyano-3-(3,4-dihydroxy-5-nitro-phenyl)-N,N-diethyl-2-propenamide]
Dissolution Rate (%): about 81.15%
